Measured values as given in US20230321012A1 (priority 2021, published 2023).
Entries after “also recorded” stand apart in the source; their conditions may differ.

What was measured:
[1] = Clinical safety and tolerability, dose-limiting toxicities (NCT03536728); format: in vivo
Excerpt: Clinical Trial Outline. […] All solid tumor types are eligible for the trial. […] DFMO was delivered orally twice daily in gel capsules.
These DLTs involved vomiting, diarrhea and nausea, and inferred a potential dual drug targeting of the gastrointestinal (GI) tract in these patients. One patient experienced severe dehydration, requiring hospitalization. A similar observation was made in dogs in Aminex's 28-day toxicological testing. […] The clinical observations and the data obtained in dog studies, together, support the hypothesis that combined oral drug dosing levels and DFMO targeting of the GI tract are causing the intolerance.
In cohorts before Part 2, Cohort 4, 14 adults were treated at 1,200 mg or higher of AMXT 1501 daily, either once daily or BID, with no DLTs. A total of 18 patients were treated at 800 mg AMXT 1501 or higher daily with no DLTs. These patients included a couple of adult patients where Cmax values above 1,000 ng/mL AMXT 1501 plasma levels were observed, again with no DLTs observed.

[2] = Water solubility, bioavailability and Biopharmaceutics Classification System class; format: physicochemical; details: oral
Excerpt: Interim data for the pharmacokinetic (PK) behavior of both agents in human subjects has been generated.

## CCCCCCCCCCCCCCCC(=O)NCCCC[C@@H](N)C(=O)NCCCNCCCCNCCCN [AMXT 1501 dicaprate]
[1]; oral 1,200 mg AMXT 1501 dicaprate alone, once daily or split BID
  clinical tolerability: well tolerated clinically; also recorded: well-tolerated clinically
[1]; patients, similar dose levels
  GI adverse effects on changing from once daily to twice daily (BID) delivery: greatly reduced; also recorded: substantially minimized
[2]
  bioavailability: low bioavailability
